Assay results as given in PMC9124243 (Cell chemical biology, 2021).
Read-outs that look alike come from different tables or passages of the source.

Tests used:
Mtb DnaK-DnaJ2-GrpE = Mtb DnaK-DnaJ2-GrpE (Mycobacterium tuberculosis, UniProt P9WMJ9); test: biochemical
[1] = target: Mtb DnaK activation by DnaJ2 and GrpE (Mycobacterium tuberculosis, UniProt P9WMJ9); format: biochemical; settings: for DnaJ2- and GrpE-mediated activation of DnaK: excess HCV inhibitor, DnaK 4 μM
M. smegmatis (Msm) = test: Mycobacterial growth inhibition assay; format: cell-based, Mycobacterium smegmatis; settings: for effect on Msm growth: wild-type Msm
luciferase = test: Luciferase counter-assay; format: biochemical
human Hsc70 and DnaJA2 = human Hsc70 and DnaJA2 (Homo sapiens, UniProt P11142); test: Denatured luciferase refolding by human chaperones; format: biochemical
human Hsc70 and DnaJA2, sequence (P11142 whole entry): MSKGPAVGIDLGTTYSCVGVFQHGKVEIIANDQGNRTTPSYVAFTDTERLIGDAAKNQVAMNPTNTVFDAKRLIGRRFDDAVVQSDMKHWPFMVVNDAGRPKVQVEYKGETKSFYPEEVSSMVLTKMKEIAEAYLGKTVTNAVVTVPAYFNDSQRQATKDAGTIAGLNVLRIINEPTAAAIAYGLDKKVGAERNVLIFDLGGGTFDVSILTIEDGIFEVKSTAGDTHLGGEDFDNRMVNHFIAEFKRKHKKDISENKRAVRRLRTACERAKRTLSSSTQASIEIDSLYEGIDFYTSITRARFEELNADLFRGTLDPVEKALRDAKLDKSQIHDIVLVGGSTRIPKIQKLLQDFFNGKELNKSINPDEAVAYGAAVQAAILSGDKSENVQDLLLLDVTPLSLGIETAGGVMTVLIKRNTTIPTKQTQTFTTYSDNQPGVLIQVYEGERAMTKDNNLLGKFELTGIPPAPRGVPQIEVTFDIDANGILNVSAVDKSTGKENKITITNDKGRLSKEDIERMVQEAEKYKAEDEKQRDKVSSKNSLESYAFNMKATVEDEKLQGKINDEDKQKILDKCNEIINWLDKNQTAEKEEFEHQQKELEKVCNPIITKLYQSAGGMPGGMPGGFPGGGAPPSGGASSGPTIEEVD

HCV protease (NS3/4A) = settings: ref Grillot et al., 2011; cited from earlier work
proteinase K = proteinase K (Parengyodontium album, UniProt P06873); test: Hemoglobin proteolysis control for proteinase K activity; format: biochemical; settings: 50 μM TP
proteinase K, sequence (P06873 106-384): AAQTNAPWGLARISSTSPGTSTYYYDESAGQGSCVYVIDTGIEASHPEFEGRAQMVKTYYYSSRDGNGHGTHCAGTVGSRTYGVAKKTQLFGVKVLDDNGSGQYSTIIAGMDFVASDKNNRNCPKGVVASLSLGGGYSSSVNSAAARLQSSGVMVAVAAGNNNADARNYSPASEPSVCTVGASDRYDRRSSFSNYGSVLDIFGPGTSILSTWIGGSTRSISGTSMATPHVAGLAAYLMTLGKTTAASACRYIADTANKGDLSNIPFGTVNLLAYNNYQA

Mtb DnaK = Mtb DnaK (Mycobacterium tuberculosis, UniProt P9WMJ9); format: biochemical; settings: excess compound, DnaK without cofactors
Mtb DnaK, sequence (P9WMJ9 whole entry): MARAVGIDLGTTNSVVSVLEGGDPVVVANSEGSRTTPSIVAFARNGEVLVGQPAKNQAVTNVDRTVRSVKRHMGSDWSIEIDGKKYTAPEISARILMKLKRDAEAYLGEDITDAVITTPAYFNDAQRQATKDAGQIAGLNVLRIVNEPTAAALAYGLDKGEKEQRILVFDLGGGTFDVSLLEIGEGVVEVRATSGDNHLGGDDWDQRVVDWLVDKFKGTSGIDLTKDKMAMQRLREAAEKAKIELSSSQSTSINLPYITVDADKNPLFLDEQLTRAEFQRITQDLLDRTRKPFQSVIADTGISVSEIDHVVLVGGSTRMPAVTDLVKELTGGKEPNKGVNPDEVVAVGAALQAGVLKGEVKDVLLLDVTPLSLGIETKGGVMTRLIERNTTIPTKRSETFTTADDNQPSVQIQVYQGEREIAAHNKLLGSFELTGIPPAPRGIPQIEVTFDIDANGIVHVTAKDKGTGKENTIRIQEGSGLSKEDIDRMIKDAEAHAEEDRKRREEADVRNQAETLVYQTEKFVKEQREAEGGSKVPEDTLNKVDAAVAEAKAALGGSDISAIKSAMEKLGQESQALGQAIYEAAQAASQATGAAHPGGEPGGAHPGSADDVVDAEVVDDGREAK

Msm [2] = format: cell-based, Mycobacterium smegmatis
[3] = target: DnaK^SBD, residues 360-625 (Mycobacterium tuberculosis, UniProt P9WMJ9); format: binding; settings: FP competition
DnaK^SBD, residues 360-625, sequence (P9WMJ9 360-625): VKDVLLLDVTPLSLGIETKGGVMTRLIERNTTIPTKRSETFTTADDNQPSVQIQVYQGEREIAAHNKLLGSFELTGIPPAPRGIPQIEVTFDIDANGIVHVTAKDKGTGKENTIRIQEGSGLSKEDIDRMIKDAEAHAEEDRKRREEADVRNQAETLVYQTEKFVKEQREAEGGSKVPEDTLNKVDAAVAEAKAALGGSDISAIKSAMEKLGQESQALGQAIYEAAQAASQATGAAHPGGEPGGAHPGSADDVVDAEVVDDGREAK

Msm [4] = test: MIC assays for antibiotic synergy with TP; format: cell-based, Mycobacterium smegmatis; settings: for improvement in MIC50: with 100 μM TP added
Mtb DnaK^FL = Mtb DnaK^FL (Mycobacterium tuberculosis, UniProt P9WMJ9); format: binding; settings: FP competition
Mtb DnaK^FL, sequence (P9WMJ9 whole entry): as the sequence (P9WMJ9 whole entry) above

[5] = target: mycobacterial DnaK and GrpE with DnaJ2 (Mycobacterium tuberculosis, UniProt P9WMJ9); format: biochemical; settings: excess compound
mycobacterial DnaK and GrpE with DnaJ2, sequence (P9WMJ9 whole entry): as above

Msm [6] = settings: below the limit of detection; ref Fay et al., 2021; cited from earlier work
[7] = kinetic analysis of ATP hydrolysis by DnaK-DnaJ2-GrpE

Mtb DnaK activation by DnaJ2 and GrpE, sequence (P9WMJ9 whole entry): as above
Mtb DnaK-DnaJ2-GrpE, sequence (P9WMJ9 whole entry): as above

CNC(=O)[C@H]1O[C@@H](n2cnc3c(NCc4cccc(I)c4)nc(Cl)nc32)[C@H](O)[C@@H]1O [MECA, 2Cl-IB-MECA]
IC50 (Mtb DnaK-DnaJ2-GrpE): ~4.5 µM
competition with ATP (Mtb DnaK-DnaJ2-GrpE; [7]): no competition with ATP
DnaJ2-mediated activation of DnaK's ATPase activity [1]: hindered
activation of DnaK by increasing concentrations of GrpE ([1]; excess MECA, sub-stoichiometric DnaJ2): nearly abrogated
effect on Msm growth (M. smegmatis (Msm)): only TP appears to cause growth inhibition of mycobacterial cells
activity against luciferase alone (luciferase): no activity

CCC[C@H](NC(=O)[C@@H]1[C@H]2CCC[C@H]2CN1C(=O)[C@@H](NC(=O)[C@@H](NC(=O)c1cnccn1)C1CCCCC1)C(C)(C)C)C(=O)C(=O)NC1CC1 [TP, Telaprevir]
refolding activity compared to DMSO alone (human Hsc70 and DnaJA2; 100 μM TP): 35%
Ki (HCV protease (NS3/4A)): 0.044 µM
effect on cleavage by proteinase K (proteinase K): did not affect cleavage by proteinase K
effect on DnaK ATPase activity (Mtb DnaK): slightly inhibits
increase of the KM of DnaK (Mtb DnaK-DnaJ2-GrpE; [7]): ~ 2 fold
DnaJ2- and GrpE-mediated activation of DnaK [1]: significantly disrupted
lowering of the FOR of RIF (Msm [2]; 100 μM TP + 240 μM RIF, Msm): about 1 log10
FOR of Msm for RIF with TP added (Msm [2]; 240 μM RIF + 100 μM TP): ~ 10^−8
concentration causing growth inhibition (M. smegmatis (Msm)): > 100 µM
growth of Msm ΔdnaJ1 (M. smegmatis (Msm); 100 μM TP): growth defects
displacement of FL-NR from DnaK^SBD [3]: displace FL-NR
effect on activity of rifampicin (Msm [4]; 100 μM TP): does not affect the activity
activity against luciferase alone (luciferase): no activity

[H]/N=C(/N)N[C@H]1[C@H](O)[C@@H](O)[C@H](O[C@@H]2O[C@@H](C)[C@](O)(C=O)[C@H]2O[C@@H]2O[C@@H](CO)[C@H](O)[C@@H](O)[C@@H]2NC)[C@@H](N/C(N)=N\[H])[C@@H]1O [streptomycin]
improvement in MIC50 (Msm [4]): ~4 fold

4BB-Val-Val-Pro-Leu-OH [Compound 3]
inhibition of DnaK-DnaJ2-GrpE ATPase activity in dose-response assay (Mtb DnaK-DnaJ2-GrpE): no activity

COc1ccc2c(O[C@@H]3C[C@H]4C(=O)N[C@]5(C(=O)NS(=O)(=O)C6CC6)C[C@H]5/C=C\CCCCN(C)C(=O)[C@@H]4C3)cc(-c3nc(C(C)C)cs3)nc2c1C [simeprevir]
IC50 value relative to that of TP (Mtb DnaK-DnaJ2-GrpE; DnaK-DnaJ2-GrpE ATPase): ~ 8 fold
inhibition of DnaK-DnaJ2-GrpE ATPase activity in dose-response assay (Mtb DnaK-DnaJ2-GrpE; dose-response): measurable inhibition
DnaJ2- and GrpE-mediated activation of DnaK [1]: significantly disrupted
effect on Msm growth (M. smegmatis (Msm)): did not affect Msm growth

CC(C)(C)NC(=O)N[C@H](C(=O)N1C[C@H]2[C@@H]([C@H]1C(=O)NC(CC1CCC1)C(=O)C(N)=O)C2(C)C)C(C)(C)C (some centres unmarked) [BC, boceprevir]
inhibition of human chaperones (human Hsc70 and DnaJA2; excess compound): does not inhibit
inhibition of DnaK-DnaJ2-GrpE ATPase activity in dose-response assay (Mtb DnaK-DnaJ2-GrpE; dose-response): inactive
competition with FL-NR for binding to DnaK (Mtb DnaK^FL): no effect on binding of the probe
effect on refolding reactions [5]: only a slight effect

4BB-Val-Val-Pro-Leu-OMe [Compound 6]
inhibition of DnaK-DnaJ2-GrpE ATPase activity in dose-response assay (Mtb DnaK-DnaJ2-GrpE): no activity

CO[C@H]1/C=C/O[C@@]2(C)Oc3c(C)c(O)c4c(O)c(c(/C=N/N5CCN(C)CC5)c(O)c4c3C2=O)NC(=O)/C(C)=C\C=C\[C@H](C)[C@H](O)[C@@H](C)[C@@H](O)[C@@H](C)[C@H](OC(C)=O)[C@@H]1C [RIF, rifampicin]
FOR value of Msm ΔdnaJ2 cells (Msm [6]): < 10^−10

NC[C@H]1O[C@H](O[C@H]2[C@H](O)[C@@H](O[C@H]3O[C@H](CO)[C@@H](O)[C@H](N)[C@H]3O)[C@H](N)C[C@@H]2N)[C@H](O)[C@@H](O)[C@@H]1O [kanamycin]
improvement in MIC50 (Msm [4]): ~ 2 fold
